Test results taken from patent US20240180900A1, “COMPOUNDS AND METHODS FOR THE TARGETED DEGRADATION OF ANDROGEN RECEPTOR” (Arvinas Operations, Inc., priority 2022, published 2024).
Like-named read-outs stand apart in the source and are kept apart here.

Legend:
AR T878S = target: T1, AR T878S (Homo sapiens, UniProt P10275, T878S); test: AR degradation in T-Rex-293 cell line, T878S; type: cell-based; details: T-Rex-293, ELISA
T1 construct: expressed in transfected cells; host or cells: T-REx-293
Excerpt: (§1) FIG. 3 is a graph showing Compound A's ability to degrade clinically relevant mutated forms AR.
(§2) To assess the ability of Compound A to degrade variants of the AR, vectors expressing wild-type AR or mutant AR proteins harboring clinically observed mutations in the ligand binding domain (13 with single amino acid changes or 4 with 2 amino acid changes) (Azad A. A., Volik S. V., Wyatt A. W., et al. Androgen receptor gene aberrations in circulating cell-free DNA: biomarkers of therapeutic resistance in castration-resistant prostate cancer. Clin Cancer Res. 2015; 21:2315-2324; Robinson D., Van Allen E. M., Wu Y. M., et al. Integrative clinical genomics of advanced prostate cancer. Cell. 2015; 161:1215-1228; Ledet E. M., Lilly M. B., Sonpavde G., et al. Comprehensive analysis of AR alterations in circulating tumor DNA from patients with advanced prostate cancer. Oncologist.

AR T878A/D891H = target: T2, AR T878A/D891H (Homo sapiens, UniProt P10275, D891H/T878A); test: AR degradation in T-Rex-293 cell line, T878A/D891H; type: cell-based; details: T-Rex-293, ELISA
T2 construct: expressed in transfected cells; host or cells: T-REx-293
Excerpt: as §1, §2

[1] = preclinical exposure in the VCaP tumor xenograft mouse model; details: CB17/scid, in vivo, oral, 1 mg/kg/day, read-out: AUCinf, minimally efficacious preclinical exposure
Description: Exposure at the 100 mg QD dose (N=6) with mean steady-state Compound A AUC0-24=4,610 ng*hr/mL on Cycle 1 Day 21 achieved the minimally efficacious preclinical exposure associated with tumor growth inhibition in the VCaP tumor xenograft mouse model (AUCinf=3,930 ng*hr/mL at 1 mg/kg/day dose; data not included).

[2] = preliminary PK in mCRPC participants (Phase 1/2); type: in vivo, human
Description: A chiral bioanalytical method by LC-MS/MS has been developed to characterize the PK of Compound A. Pharmacokinetic analyses were performed using noncompartmental analysis methods.
Mean steady state peak/trough ratio is less than 2, which indicates minimal fluctuation in plasma concentrations once steady state is achieved. Steady state occurs within 3 weeks into treatment.
An ongoing, open-label, Phase 1/2 study in male participants with mCRPC. The Phase 1 dose escalation investigated Compound A doses of 20 mg, 40 mg, 80 mg, 100 mg, 160 mg, 200 mg, 320 mg, 400 mg, 480 mg, and 500 mg administered QD. […] Doses of 100 mg QD and 300 mg QD were selected for the Phase 2 cohort expansion.

PSA = test: plasma PSA levels by ELISA, intact VCaP tumor model; type: in vivo, mouse
Excerpt: Plasma PSA levels are used as a clinical biomarker of disease progression and are thought to be closely related with the degree of AR activity (Catalona, W. J., Richie, J. P., Ahmann, F. R., et al. Comparison of digital rectal examination and serum prostate specific antigen in the early detection of prostate cancer: results of a multicenter clinical trial of 6,630 men. The Journal of Urology. 1994; 151(5):1283-1290. Cleutjens, K. B., van Eekelen, C. C., van der Korput, H. A., et al. Two androgen response regions cooperate in steroid hormone regulated activity of the prostate-specific antigen promoter. J Biol Chem. 1996; 271(11):6379-6388.). Plasma PSA levels upon Compound A treatment were evaluated by ELISA in samples from the intact VCaP tumor model.

T1 sequence (P10275 whole entry T878S): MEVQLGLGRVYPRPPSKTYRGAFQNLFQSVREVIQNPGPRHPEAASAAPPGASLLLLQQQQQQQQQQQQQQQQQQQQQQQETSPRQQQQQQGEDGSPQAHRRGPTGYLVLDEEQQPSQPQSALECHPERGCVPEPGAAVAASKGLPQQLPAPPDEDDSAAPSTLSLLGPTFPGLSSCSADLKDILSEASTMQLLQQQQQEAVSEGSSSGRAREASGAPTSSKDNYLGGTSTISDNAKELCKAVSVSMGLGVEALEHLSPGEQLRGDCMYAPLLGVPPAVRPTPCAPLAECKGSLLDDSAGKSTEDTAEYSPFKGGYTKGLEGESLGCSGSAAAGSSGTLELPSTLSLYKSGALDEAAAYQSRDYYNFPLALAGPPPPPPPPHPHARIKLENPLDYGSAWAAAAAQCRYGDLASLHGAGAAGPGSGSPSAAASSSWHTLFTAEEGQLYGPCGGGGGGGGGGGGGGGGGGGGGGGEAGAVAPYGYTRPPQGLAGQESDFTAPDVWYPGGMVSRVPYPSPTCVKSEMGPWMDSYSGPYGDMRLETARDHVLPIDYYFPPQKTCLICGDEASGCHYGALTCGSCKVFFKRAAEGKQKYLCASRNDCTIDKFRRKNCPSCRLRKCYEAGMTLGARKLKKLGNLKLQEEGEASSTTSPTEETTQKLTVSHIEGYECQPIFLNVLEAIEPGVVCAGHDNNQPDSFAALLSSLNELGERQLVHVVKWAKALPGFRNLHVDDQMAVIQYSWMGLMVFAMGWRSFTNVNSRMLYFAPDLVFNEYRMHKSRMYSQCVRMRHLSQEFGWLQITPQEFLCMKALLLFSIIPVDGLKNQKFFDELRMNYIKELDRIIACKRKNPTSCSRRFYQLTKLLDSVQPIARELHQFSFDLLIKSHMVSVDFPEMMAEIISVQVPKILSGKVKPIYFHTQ
T2 sequence (P10275 whole entry T878A/D891H): as the sequence (P10275 whole entry T878S) above, with S878A, D891H counted along it

## COc1cc(O[C@H]2C(C)(C)[C@H](NC(=O)c3ccc(N4CCC(CN5CCN(c6ccc(C(=O)N[C@H]7CCC(=O)NC7=O)c(F)c6)CC5)CC4)cc3)C2(C)C)ccc1C#N [Compound A, 4-(4-((1-(4-(((1R,3R)-3-(4-cyano-3-methoxyphenoxy)-2,2,4,4-tetramethylcyclobutyl)carbamoyl)phenyl)piperidin-4-yl)methyl)piperazin-1-yl)-N—((S)-2,6-dioxopiperidin-3-yl)-2-fluorobenzamide]
AR T878S
  DC50: 0.9 nM
AR T878A/D891H
  DC50: 3.4 nM
[1]
  AUC(0-inf): 3930 ng·h/mL
[2]; QD dosing
  Mean steady state peak/trough ratio: less than 2
  time to steady state: ≤ 3 weeks
[2]; human, plasma, oral, 20 mg, 20 mg QD, individual value (n = 1), read-out: AUC0-24 Day 1
  AUC(0-t): 178 ng·h/mL
[2]; human, plasma, oral, 20 mg, 20 mg QD, individual value (n = 1), read-out: AUC0-24 Day 21
  AUC(0-t): 997 ng·h/mL
[2]; human, plasma, oral, 20 mg, 20 mg QD, individual value (n = 1), read-out: Cmax Day 1
  Cmax: 11.1 ng/mL
[2]; human, plasma, oral, 20 mg, 20 mg QD, individual value (n = 1), read-out: Cmax Day 21
  Cmax: 44.1 ng/mL
[2]; human, plasma, oral, 40 mg, 40 mg QD, individual value (n = 1), read-out: AUC0-24 Day 1
  AUC(0-t): 314 ng·h/mL
[2]; human, plasma, oral, 40 mg, 40 mg QD, individual value (n = 1), read-out: AUC0-24 Day 21
  AUC(0-t): 1300 ng·h/mL
[2]; human, plasma, oral, 40 mg, 40 mg QD, individual value (n = 1), read-out: Cmax Day 1
  Cmax: 19.1 ng/mL
[2]; human, plasma, oral, 40 mg, 40 mg QD, individual value (n = 1), read-out: Cmax Day 21
  Cmax: 60.3 ng/mL
[2]; human, plasma, oral, 80 mg, 80 mg QD, individual value (n = 1), read-out: AUC0-24 Day 1
  AUC(0-t): 432 ng·h/mL
[2]; human, plasma, oral, 80 mg, 80 mg QD, individual value (n = 1), read-out: AUC0-24 Day 21
  AUC(0-t): 3110 ng·h/mL
[2]; human, plasma, oral, 80 mg, 80 mg QD, individual value (n = 1), read-out: Cmax Day 1
  Cmax: 22.2 ng/mL
[2]; human, plasma, oral, 80 mg, 80 mg QD, individual value (n = 1), read-out: Cmax Day 21
  Cmax: 139 ng/mL
[2]; male, human, plasma, oral, 100 mg, 100 mg QD (N=6), Cycle 1 Day 21, read-out: mean steady-state AUC0-24
  AUC(0-t): 4610 ng·h/mL
[2]; male, human, plasma, oral, 100 mg, 100 mg QD, Mean (CV %), read-out: AUC0-24 Day 1
  AUC(0-t): 816 ng·h/mL
[2]; male, human, plasma, oral, 100 mg, 100 mg QD, Mean (CV %), read-out: AUC0-24 Day 21
  AUC(0-t): 4610 ng·h/mL
[2]; male, human, plasma, oral, 100 mg, 100 mg QD, Mean (CV %), read-out: Cmax Day 1
  Cmax: 45.1 ng/mL
[2]; male, human, plasma, oral, 100 mg, 100 mg QD, Mean (CV %), read-out: Cmax Day 21
  Cmax: 233 ng/mL
[2]; male, human, plasma, oral, 160 mg, 160 mg QD, Mean (CV %), read-out: AUC0-24 Day 1
  AUC(0-t): 2050 ng·h/mL
[2]; male, human, plasma, oral, 160 mg, 160 mg QD, Mean (CV %), read-out: AUC0-24 Day 21
  AUC(0-t): 8450 ng·h/mL
[2]; male, human, plasma, oral, 160 mg, 160 mg QD, Mean (CV %), read-out: Cmax Day 1
  Cmax: 125 ng/mL
[2]; male, human, plasma, oral, 160 mg, 160 mg QD, Mean (CV %), read-out: Cmax Day 21
  Cmax: 445 ng/mL
[2]; male, human, plasma, oral, 200 mg, 200 mg QD, Mean (CV %), read-out: AUC0-24 Day 1
  AUC(0-t): 1830 ng·h/mL
[2]; male, human, plasma, oral, 200 mg, 200 mg QD, Mean (CV %), read-out: AUC0-24 Day 21
  AUC(0-t): 11500 ng·h/mL
[2]; male, human, plasma, oral, 200 mg, 200 mg QD, Mean (CV %), read-out: Cmax Day 1
  Cmax: 110 ng/mL
[2]; male, human, plasma, oral, 200 mg, 200 mg QD, Mean (CV %), read-out: Cmax Day 21
  Cmax: 559 ng/mL
[2]; male, human, plasma, oral, 300 mg, 300 mg QD, Mean (CV %), read-out: AUC0-24 Day 1
  AUC(0-t): 2220 ng·h/mL
[2]; male, human, plasma, oral, 300 mg, 300 mg QD, Mean (CV %), read-out: AUC0-24 Day 21
  AUC(0-t): 14900 ng·h/mL
[2]; male, human, plasma, oral, 300 mg, 300 mg QD, Mean (CV %), read-out: Cmax Day 1
  Cmax: 119 ng/mL
[2]; male, human, plasma, oral, 300 mg, 300 mg QD, Mean (CV %), read-out: Cmax Day 21
  Cmax: 672 ng/mL
[2]; male, human, plasma, oral, 320 mg, 320 mg QD, Mean (CV %), read-out: AUC0-24 Day 1
  AUC(0-t): 3990 ng·h/mL
[2]; male, human, plasma, oral, 320 mg, 320 mg QD, Mean (CV %), read-out: AUC0-24 Day 21
  AUC(0-t): 23100 ng·h/mL
[2]; male, human, plasma, oral, 320 mg, 320 mg QD, Mean (CV %), read-out: Cmax Day 1
  Cmax: 223 ng/mL
[2]; male, human, plasma, oral, 320 mg, 320 mg QD, Mean (CV %), read-out: Cmax Day 21
  Cmax: 1070 ng/mL
[2]; male, human, plasma, oral, 400 mg, 400 mg QD, Mean (CV %), read-out: AUC0-24 Day 1
  AUC(0-t): 3350 ng·h/mL
[2]; male, human, plasma, oral, 400 mg, 400 mg QD, Mean (CV %), read-out: AUC0-24 Day 21
  AUC(0-t): 11900 ng·h/mL
[2]; male, human, plasma, oral, 400 mg, 400 mg QD, Mean (CV %), read-out: Cmax Day 1
  Cmax: 232 ng/mL
[2]; male, human, plasma, oral, 400 mg, 400 mg QD, Mean (CV %), read-out: Cmax Day 21
  Cmax: 526 ng/mL
[2]; male, human, plasma, oral, 480 mg, 480 mg QD, Mean (CV %), read-out: AUC0-24 Day 1
  AUC(0-t): 2540 ng·h/mL
[2]; male, human, plasma, oral, 480 mg, 480 mg QD, Mean (CV %), read-out: AUC0-24 Day 21
  AUC(0-t): 12900 ng·h/mL
[2]; male, human, plasma, oral, 480 mg, 480 mg QD, Mean (CV %), read-out: Cmax Day 1
  Cmax: 145 ng/mL
[2]; male, human, plasma, oral, 480 mg, 480 mg QD, Mean (CV %), read-out: Cmax Day 21
  Cmax: 644 ng/mL
[2]; male, human, plasma, oral, 500 mg, 500 mg QD, Mean (CV %), read-out: AUC0-24 Day 1
  AUC(0-t): 3590 ng·h/mL
[2]; male, human, plasma, oral, 500 mg, 500 mg QD, Mean (CV %), read-out: AUC0-24 Day 21
  AUC(0-t): 15000 ng·h/mL
[2]; male, human, plasma, oral, 500 mg, 500 mg QD, Mean (CV %), read-out: Cmax Day 1
  Cmax: 203 ng/mL
[2]; male, human, plasma, oral, 500 mg, 500 mg QD, Mean (CV %), read-out: Cmax Day 21
  Cmax: 703 ng/mL
[2]; male, human, plasma, oral, QD dosing, mCRPC participants, read-out: effective mean T1/2
  half-life: 83 to 111 h
[2]; male, human, plasma, oral administration, mCRPC participants, read-out: median Tmax
  Tmax: ~8 h
PSA; 3 mg/kg and 10 mg/kg vs 20 mg/kg enzalutamide
  plasma PSA levels vs enzalutamide: reduced PSA levels more robustly than 20 mg/kg of enzalutamide
PSA; all 3 doses (10, 3, 1 mg/kg/day), tumor-bearing intact mice
  plasma PSA levels: reduced PSA levels in a dose-dependent manner
